In the CheMixHub drug solubility set:

Test: xn = mol fraction of the nth substance listed, in the solute-free solvent

Cl.c1ccc2c(CC3=NCCN3)cccc2c1 + CO + CCOC(C)=O
solubility (g/100 g solution)
Details	278.15 K	283.15 K	288.15 K	293.15 K	298.15 K	303.15 K	308.15 K	313.15 K	318.15 K	323.15 K
x2 = 0.234	0.0388	0.0424	0.0488	0.0564	0.0653	0.0746	0.0856	0.0943	0.107	0.124
x2 = 0.4074	0.414	0.448	0.483	0.536	0.585	0.641	0.701	0.757	0.832	0.9
x2 = 0.5409	1.28	1.46	1.64	1.85	2.05	2.3	2.54	2.8	3.09	3.43
x2 = 0.647	2.35	2.79	3.18	3.62	4.14	4.79	5.44	6	6.94	7.75
x2 = 0.7342	2.92	3.55	4.1	4.91	5.54	6.21	7.05	7.84	8.87	9.75
x2 = 0.8048	4.02	4.75	5.56	6.6	7.64	8.62	10.1	11.2	12.5	14
x2 = 0.8651	4.96	5.72	6.88	8.2	9.51	11.3	12.9	14.3	15.7	17.4
x2 = 0.9166	5.87	6.98	8.13	9.66	11.2	13.1	15	17.1	19	20.8
x2 = 0.9612	6.37	7.47	8.84	10.6	12.3	14.4	16.6	18.9	21.1	23.5

O=CC(O)C(O)C(O)CO (centres undefined) + CO + ClCCl
solubility (g/100 g solution)
Details	x2 = 0.1	x2 = 0.2	x2 = 0.3	x2 = 0.4	x2 = 0.5	x2 = 0.6	x2 = 0.7	x2 = 0.8	x2 = 0.9
283.15 K	0.097	0.564	1.19	1.64	2.52	3.8	4.89	6.81	9.89
288.15 K	0.17	0.673	1.33	1.81	2.86	4.63	5.87	8.86	12.6
293.15 K	0.204	0.696	1.5	2.4	3.52	5.59	7.17	10.8	15.8
298.15 K	0.281	0.774	1.78	2.73	4.3	6.87	9.1	13.4	20.1
303.15 K	0.286	0.82	2.17	3.22	5.29	9.18	12.7	18.3	25.3

CCc1cccc2c3c([nH]c12)C(CC)(CC(=O)O)OCC3 (centres undefined) + COC(C)=O + CCCCCC
solubility (g/100 g solution)
Details	278.15 K	283.15 K	288.15 K	293.15 K	298.15 K	303.15 K	308.15 K	313.15 K	318.15 K	323.15 K
x2 = 0.2255	1.11	1.18	1.26	1.35	1.42	1.5	1.61	1.69	1.76	1.86
x2 = 0.4369	3.55	3.98	4.43	4.96	5.39	5.87	6.35	6.88	7.34	7.96
x2 = 0.6357	4.26	5.33	6.41	7.66	8.86	9.93	11.4	12.9	14.1	15.7
x2 = 0.8229	10.8	12.1	13.6	15.1	16.7	18.3	20.2	22.4	24.4	26

Cl.c1ccc2c(CC3=NCCN3)cccc2c1 + COCCO + CC(C)O
solubility (g/100 g solution)
Details	278.15 K	283.15 K	288.15 K	293.15 K	298.15 K	303.15 K	308.15 K	313.15 K	318.15 K	323.15 K
x2 = 0.08067	0.345	0.391	0.44	0.493	0.56	0.628	0.702	0.778	0.867	0.926
x2 = 0.1649	0.526	0.602	0.687	0.775	0.873	0.969	1.09	1.19	1.32	1.42
x2 = 0.2529	0.638	0.792	0.944	1.03	1.25	1.45	1.56	1.82	1.98	2.32
x2 = 0.3449	0.753	0.926	1.09	1.32	1.53	1.8	2.05	2.36	2.58	2.87
x2 = 0.4412	1.03	1.18	1.29	1.51	1.68	1.89	2.09	2.36	2.6	2.87
x2 = 0.5422	1.45	1.58	1.73	1.92	2.17	2.43	2.69	2.97	3.24	3.61
x2 = 0.6482	1.84	2.01	2.28	2.46	2.77	2.98	3.37	3.59	3.82	4.19
x2 = 0.7595	2.35	2.52	2.78	3.06	3.34	3.67	4.04	4.45	4.93	5.36
x2 = 0.8767	2.49	2.71	3.03	3.29	3.7	3.95	4.34	4.64	4.96	5.33

Cl.NC(C=O)C(O)C(O)C(O)CO (centres undefined) + O + CCO
solubility (g/100 g solution)
Details	283.15 K	288.15 K	293.15 K	298.15 K	303.15 K	308.15 K	313.15 K	318.15 K	323.15 K
x2 = 0.4	0.614	0.658	0.736	0.832	0.899	0.944	1.08	1.18	1.27
x2 = 0.5	1.17	1.37	1.55	1.68	1.79	2.1	2.32	2.52	2.83
x2 = 0.6	2.21	2.56	2.9	3.34	3.6	3.91	4.59	4.86	5.43
x2 = 0.7	3.86	4.61	5.18	5.66	6.46	7.67	8.39	9.2	10.5
x2 = 0.8	6.88	7.72	8.59	9.69	10.7	11.8	13.1	14.6	16.1
x2 = 0.9	12.3	13.1	14.5	16.1	17.4	19	20.6	22.3	23.9

Cl.NC(C=O)C(O)C(O)C(O)CO (centres undefined) + O + CO
solubility (g/100 g solution)
Details	283.15 K	288.15 K	293.15 K	298.15 K	303.15 K	308.15 K	313.15 K	318.15 K	323.15 K
x2 = 0.2	0.992	1.03	1.13	1.23	1.35	1.48	1.55	1.7	1.83
x2 = 0.4	2.16	2.53	2.73	2.95	3.19	3.51	3.82	4.32	4.72
x2 = 0.6	4.73	5.53	6	6.76	7.4	8.23	9.01	10	10.9
x2 = 0.8	10.2	11.5	12.8	13.9	15.2	16.7	18.1	19.7	21.3
x2 = 0.9	15.2	16.6	18	19.7	21	22.9	24.2	25.8	27.9
